Measured values published in US4178371A, “Tetrapeptide derivatives” (Reckitt & Colman Products Limited, priority 1977, dated 1979).

Legend:
[1] = system: mouse; test: mouse phenyl-quinone anti writhing test of Hendershot et al (H & F); type: in vivo; conditions: i.v.
From the text: (§1) J. Pharmacol, and Chemotherapy 33. 266-276 (1968). […] 13, 266 (1963).

[2] = system: opiate receptor sites; conditions: isolated guinea pig ileum twitch response, dose response curve compared with Met enkephalin
From the text: The test used for the detection of their agonist activity at opiate receptor sites is that employing the transmurally stimulates guinea pig ileum preparation described in Kosterlitz et al., Brit. J. Pharmacol, and Chemotherapy 33. 266-276 (1968). […] Exp. Ther. 125, 237 (1959) and by the rat tail flick test (intravenous administration) according to Jansen et al., Arzneim Forsch. 13, 266 (1963).
In the above mentioned test method of Kosterlitz et al male or female guinea pigs (Duncan Hartley strain) are killed by a blow on the head and a portion of the ileum removed and set up in an isolated organ bath of 50 ml volume. A `twitch` response is produced by low frequency (0.1 Hz) stimulation with 0.5 msec rectilinear pulses. A test compound is dissolved in distilled water to produce a stock solution of concentration 1 mg/ml. Serial dilutions are carried out using Krebs solution to produce concentrations of 10 μg, 1 μg and 0.1 μg/ml. The compound is tested by adding between 0.1-0.3 ml of the solutions to the organ bath. A dose response curve is then drawn and compared with that for Met enkephalin.

[3] = system: rat; test: rat tail flick test (R.T.F.), intravenous administration; type: in vivo; conditions: hot water 55° as nociceptive stimulus, i.v.
Method: as §1
In the rat tail flick test hot water (maintained at 55°±1°C.) is used as the nociceptive stimulus.

| SMILES | H & F ED50 [1] | G.P.I. Potency (X Met enkephalin) [2] | R.T.F. ED50 [3] |
| --- | --- | --- | --- |
| CC(=O)NCCNC(=O)[C@H](Cc1ccccc1)NC(=O)CNC(=O)[C@@H](C)NC(=O)[C@@H](N)Cc1ccc(O)cc1 [Example 1, L-Tyrosyl-D-alanylglycyl-L-phenylalanin-2-acetamidoethylamide] | 0.01 mg/kg | 2.6 X Met enkephalin | – |
| C[C@@H](NC(=O)[C@@H](N)Cc1ccc(O)cc1)C(=O)NCC(=O)N(C)[C@@H](Cc1ccccc1)C(=O)NCCCN(C)C [Example 2, L-Tyrosyl-D-alanylglycyl-N-methyl-L-phenylalanine-3-dimethylaminopropylamide] | 0.28 mg/kg | 7.2 X Met enkephalin | 2.0 mg/kg |
| C[C@@H](NC(=O)[C@@H](N)Cc1ccc(O)cc1)C(=O)NCC(=O)N(C)[C@@H](Cc1ccccc1)C(=O)NCCN(C)C [Example 4, L-Tyrosyl-D-alanylglycyl-N-methyl-L-phenylalanine-2-dimethylaminoethylamide] | 0.003 mg/kg | 8.5 X Met enkephalin | 1.4 mg/kg |
| C[C@@H](NC(=O)[C@@H](N)Cc1ccc(O)cc1)C(=O)NCC(=O)N(C)[C@@H](Cc1ccccc1)C(=O)NCCN [Example 6, L-Tyrosyl-D-alanylglycyl-N-methyl-L-phenylalanine-2-aminoethylamide] | 0.028 mg/kg | 13.0 X Met enkephalin | 0.37 mg/kg |
| C[C@@H](NC(=O)[C@@H](N)Cc1ccc(O)cc1)C(=O)NCC(=O)N(C)[C@@H](Cc1ccccc1)C(=O)NCCCC(=O)N(C)c1ccccc1 [Example 19, HTyrDAlaGlyMePheNH(CH2)3 CONMePh] | – | 23.2 X Met enkephalin | – |
| C[C@@H](NC(=O)[C@@H](N)Cc1ccc(O)cc1)C(=O)NCC(=O)N(C)[C@@H](Cc1ccccc1)C(=O)NCC[N+](C)(C)[O-] [Example 22, HTyrDAlaGlyMePheNH(CH 2)2 N(O)Me2] | – | 6.5 X Met enkephalin | – |
